Results: patent US5087439A, “Paramagnetic metal-diethylenetriamine-pentaacetic acid partial amide complexes for magnetic resonance imaging” (Salutar, Inc., priority 1989, dated 1992)

How the values were obtained:
[1] = Relaxivity (T1, T2) of the compound in human plasma at 10 MHz (37° C.); format: physicochemical; settings: for T1 Plasma / T2 Plasma: 10 MHz, 37° C.
Protocol: (§1) Relaxivity of the compound in water and in human plasma at 10 MHz (37° C.) (for practical purposes, the lower the T1 in a given part of the body, the brighter the image in MR imaging):
(§2) *T1 and T2 are relaxtion times in msec.

[2] = Relaxivity (T1, T2) of the compound in water at 10 MHz (37° C.); format: physicochemical
Protocol: as §1, §2

[3] = vs prior art compound, same dosage, from blood T1 at 20 minutes
Protocol: Pharmacokinetics of the compound in a pure breed beagle dog
A male dog was injected with the test compounds at 100 μ mol/kg. Blood was drawn at the indicated times. The plasma was separated and the relaxivity measured.

[4] = Organ distribution of the compound in male rabbits (organ T1 measured in vitro at 5 MHz); settings: 100 μmol/kg; for T1, Skeletal Muscle: male rabbits, 15 min post injection, 5 MHz
Protocol: The test compounds were injected into male rabbits at 100 μmol/kg. The rabbits were sacrificed at 15 minutes post injection and the relaxivity of internal organs was measured in vitro at 5 MHz.
The test compounds were injected into male rabbits at 100 μ mol/kg. The rabbits were sacrificed at 15 minutes post injection and the relaxivity of internal organs was measured in vitro at 5 MHz.

## CCCCCCNC(=O)CN(CCN(CCN(CC(=O)[O-])CC(=O)NCCCCCC)CC(=O)[O-])CC(=O)[O-].[Gd+3] [Gd DTPA-bishexylamide]
[1]; 1.17 × 10^-3 M
  T1 Plasma: 83 ms
  T2 Plasma: 71 ms
[1]; 1.46 × 10^-4 M
  T1 Plasma: 403 ms
[1]; 1.82 × 10^-5 M
  T1 Plasma: 1087 ms
[1]; 2.34 × 10^-3 M
  T1 Plasma: 48 ms
  T2 Plasma: 39 ms
[1]; 2.92 × 10^-4 M
  T1 Plasma: 249 ms
[1]; 3.68 × 10^-5 M
  T1 Plasma: 881 ms
[1]; 4.67 × 10^-3 M
  T1 Plasma: 26 ms
  T2 Plasma: 21 ms
[1]; 5.84 × 10^-4 M
  T1 Plasma: 145 ms
  T2 Plasma: 123 ms
[1]; 7.30 × 10^-5 M
  T1 Plasma: 622 ms
[1]; 9.12 × 10^-6 M
  T1 Plasma: 1220 ms
[1]; 9.34 × 10^-3 M
  T1 Plasma: 15 ms
  T2 Plasma: 10 ms
[1]; vs Gd DTPA-di(N-methylglucamine), human plasma
  proton relaxation in plasma compared with the prior art compound: almost three times better
[2]; 1.17 × 10^-3 M
  T1 Water: 159 ms
  T2 Water: 147 ms
[2]; 1.46 × 10^-4 M
  T1 Water: 947 ms
[2]; 2.34 × 10^-3 M
  T1 Water: 81 ms
  T2 Water: 76 ms
[2]; 2.92 × 10^-4 M
  T1 Water: 561 ms
[2]; 4.67 × 10^-3 M
  T1 Water: 42 ms
  T2 Water: 36 ms
[2]; 5.84 × 10^-4 M
  T1 Water: 309 ms
[2]; 7.30 × 10^-5 M
  T1 Water: 1374 ms
[2]; 9.34 × 10^-3 M
  T1 Water: 23 ms
  T2 Water: 18 ms
[3]
  improvement in image signal intensity: two-fold
[4]
  T1, Skeletal Muscle: 397 ms

## C[NH2+]C[C@H](O)[C@@H](O)[C@H](O)[C@H](O)CO.C[NH2+]C[C@H](O)[C@@H](O)[C@H](O)[C@H](O)CO.O=C([O-])CN(CCN(CC(=O)[O-])CC(=O)[O-])CCN(CC(=O)[O-])CC(=O)[O-].[Gd+3] [Gd DTPA-di(N-methylglucamine), reference compound]
[1]; 1.56 × 10^-3 M
  T1 Plasma: 134 ms
  T2 Plasma: 116 ms
[1]; 1.95 × 10^-4 M
  T1 Plasma: 636 ms
[1]; 3.13 × 10^-3 M
  T1 Plasma: 69 ms
  T2 Plasma: 61 ms
[1]; 3.91 × 10^-4 M
  T1 Plasma: 405 ms
[1]; 6.25 × 10^-3 M
  T1 Plasma: 39 ms
  T2 Plasma: 31 ms
[1]; 7.81 × 10^-4 M
  T1 Plasma: 240 ms
[1]; 9.77 × 10^-5 M
  T1 Plasma: 877 ms
[2]; 1.56 × 10^-3 M
  T1 Water: 163 ms
  T2 Water: 155 ms
[2]; 1.95 × 10^-4 M
  T1 Water: 1015 ms
[2]; 3.13 × 10^-3 M
  T1 Water: 83 ms
  T2 Water: 76 ms
[2]; 3.91 × 10^-4 M
  T1 Water: 582 ms
[2]; 6.25 × 10^-3 M
  T1 Water: 40 ms
  T2 Water: 35 ms
[2]; 7.81 × 10^-4 M
  T1 Water: 309 ms
[4]
  T1, Skeletal Muscle: 405 ms
[4]; rabbits, 15 min, heart and liver
  change in spin lattice (T1) relaxation in the heart and liver: fails to produce any change
